Earlier results as cited in US10045993B2, “Pharmaceutical preparation containing entecavir as active ingredient, and preparation method therefor” (CTC BIO, INC., priority 2014, dated 2018).

Conditions: pH 7.9, 25° C. (room temperature)

SMILES: C=C1[C@H](CO)[C@@H](O)C[C@@H]1n1cnc2c(=O)[nH]c(N)nc21 [Entecavir, [1-S-(1α,3α,4β)]-2-amino-1,9-dihydro-9-[4-hydroxy-3-(hydroxymethyl)-2-methylenecyclopentyl]-6H-purin-6-one]
- moisture solubility: 2400 µg/mL
